Source: patent US10487093B2, “Heterocyclic compounds, in particular 2-oxo-4,4,5,5,6,6,7,7-octahydrobenzoxazole derivatives, and their use as antibacterial compounds” (priority 2016, dated 2019)
≈ marks a conversion by molar mass, not a printed value. Read-outs that look alike come from different tables or passages of the source.

Legend:
[1] = test system: Acinetobacter baumannii NCTC 13420; experiment: MIC, broth microdilution (CLSI) versus planktonic bacteria; assay type: cell-based; settings: Acinetobacter baumannii NCTC 13420, 16-20 h, mode of three independent experiments; for MIC: NCTC13420, read-out: MIC, Ab NCTC 13420
[2] = test system: Acinetobacter baumannii ATCC 19606; experiment: as above; assay type: cell-based; settings: Acinetobacter baumannii ATCC 19606, 16-20 h, mode of three independent experiments; for MIC: ATCC19606, read-out: MIC, Ab ATCC 19606
[3] = test system: Enterobacter cloacae NCTC 13406; experiment: as above; assay type: cell-based; settings: Enterobacter cloacae NCTC 13406, 16-20 h, mode of three independent experiments; for MIC: NCTC13406, read-out: MIC, Ecl NCTC 13406
[4] = test system: Escherichia coli ATCC 25922; experiment: as above; assay type: cell-based; settings: Escherichia coli ATCC 25922, 16-20 h, mode of three independent experiments; for MIC: ATCC25922, read-out: MIC, Ec ATCC 25922
E. coli ATCC BAA-2452 = experiment: as above; assay type: cell-based; settings: Escherichia coli ATCC BAA-2452, 16-20 h, mode of three independent experiments; for MIC: read-out: MIC, Ec ATCC BAA 2452
E. coli NCTC 13476 = experiment: as above; assay type: cell-based; settings: Escherichia coli NCTC 13476, 16-20 h, mode of three independent experiments; for MIC: NCTC13476, read-out: MIC, Ec NCTC 13476
E. coli MG1655 = experiment: as above; assay type: cell-based, Escherichia coli; settings: for MIC: Escherichia coli, MG1655, read-out: MIC, Ec MG1655 WT
[5] = test system: Haemophilus influenzae ATCC 49247; experiment: as above; assay type: cell-based; settings: Haemophilus influenzae ATCC 49247, 16-20 h, mode of three independent experiments; for MIC: ATCC49247, read-out: MIC, Hi ATCC 49247
[6] = test system: Pseudomonas aeruginosa ATCC 27853; experiment: as above; assay type: cell-based; settings: Pseudomonas aeruginosa ATCC 27853, 16-20 h, mode of three independent experiments; for MIC: ATCC27853, read-out: MIC, Pa ATCC 27853
[7] = test system: Staphylococcus aureus ATCC 29213; experiment: as above; assay type: cell-based; settings: Staphylococcus aureus ATCC 29213, 16-20 h, mode of three independent experiments; for MIC: ATCC29213, read-out: MIC, Sa ATCC 29213
[8] = test system: Enterococcus faecalis ATCC 29212; experiment: as above; assay type: cell-based; settings: ATCC29212, 16-20 h, mode of three independent experiments, read-out: MIC, Ef ATCC 29212
[9] = test system: Streptococcus pneumoniae ATCC 49619; experiment: as above; assay type: cell-based; settings: Streptococcus pneumoniae ATCC 49619, 16-20 h, mode of three independent experiments; for MIC: ATCC49619, read-out: MIC, Sp ATCC 49619
E. coli MG1655 S83L = assay type: cell-based, Escherichia coli
E. coli MG1655 D87G = assay type: cell-based, Escherichia coli
[10] = test system: human hepatic cell line (HepG2 ATCC HB-8065); experiment: Human cell viability assay (CellTiter-Glo); settings: for IC50: Homo sapiens, HepG2, 24 h, read-out: IC50 (μg/mL) HepG2
[11] = test system: Enterococcus faecium ATCC 19434; experiment: MIC, broth microdilution (CLSI) versus planktonic bacteria; assay type: cell-based; settings: ATCC19434, 16-20 h, mode of three independent experiments, read-out: MIC, Efm ATCC 19434
[12] = compared to the isogenic parent strain E. coli MG1655, S83L mutation on DNA gyrase subunit GyrA
[13] = compared to the isogenic parent strain E. coli MG1655, D87G mutation on DNA gyrase subunit GyrA

Row | Molecule | MIC [1] [µg/mL] | MIC [2] [µg/mL] | MIC [3] [µg/mL] | MIC [4] [µg/mL] | MIC (E. coli ATCC BAA-2452) [µg/mL] | MIC (E. coli NCTC 13476) [µg/mL] | MIC (E. coli MG1655) [µg/mL] | MIC [5] [µg/mL] | MIC [6] [µg/mL] | MIC [7] [µg/mL] | MIC [8] [µg/mL] | MIC [9] [µg/mL] | Fold increase in MIC, E. coli MG1655 S83L (E. coli MG1655 S83L; [12]) [fold] | Fold increase in MIC, E. coli MG1655 D87G (E. coli MG1655 D87G; [13]) [fold] | IC50 [10] [µg/mL] | further results
1 | N#Cc1ccc2ccc(=O)n(CCCN[C@H]3CC[C@H]4[C@H](C3)OC(=O)N4c3ccc4c(n3)NC(=O)CO4)c2c1 [Compound 60, 1-(3-{[(3aS,6S,7aS)-2-oxo-3-{3-oxo-2H,3H,4H-pyrido[3,2-b][1,4]oxazin-6-yl}-octahydro-1,3-benzoxazol-6-yl]amino}propyl)-2-oxo-1,2-dihydroquinoline-7-carbonitrile] | < 1 | < 1 | < 1 | < 1 | < 1 | < 1 | < 1 | < 1 | < 1 | < 1 | < 1 | < 1 | 4 | 2 | 10 to 100 (≈ 19.4 to 194 µM) | 
2 | COc1cnc2ccc(=O)n(CCN[C@H]3CC[C@H]4[C@H](C3)OC(=O)N4c3ccc4c(n3)NC(=O)CO4)c2n1 [Compound 63, (3aS,6S,7aS)-6-[(2-{3-methoxy-6-oxo-5H,6H-pyrido[2,3-b]pyrazin-5-yl}ethyl)amino]-3-{3-oxo-2H,3H,4H-pyrido[3,2-b][1,4]oxazin-6-yl}-octahydro-1,3-benzoxazol-2-one] | < 1 | < 1 | < 1 | < 1 | < 1 | < 1 | < 1 | < 1 | < 1 | < 1 | < 1 | < 1 | 1 | 1 | > 100 | 
3 | NCCCOc1ccc2ccc(=O)n(CCN[C@@H]3CC[C@@H]4[C@@H](C3)OC(=O)N4c3ccc4c(n3)NC(=O)CO4)c2c1 [Compound 3, 1-(2-{[(3aR,6R,7aR)-2-oxo-3-{3-oxo-2H,3H,4H-pyrido[3,2-b][1,4]oxazin-6-yl}-octahydro-1,3-benzoxazol-6-yl]amino}ethyl)-7-(3-aminopropoxy)-1,2-dihydroquinolin-2-one] | 10 to 100 (≈ 18.2 to 182 µM) | > 100 | 10 to 100 (≈ 18.2 to 182 µM) | 1 to 10 (≈ 1.82 to 18.2 µM) |  |  |  | 10 to 100 (≈ 18.2 to 182 µM) | 1 to 10 (≈ 1.82 to 18.2 µM) | < 1 | < 1 |  |  |  | > 100 | 
4 | COc1cnc2ccc(=O)n(CCN[C@@H]3CC[C@@H]4[C@@H](C3)OC(=O)N4c3ccc4c(n3)NC(=O)CO4)c2n1 [Compound 87, (3aR,6R,7aR)-6-[(2-{3-methoxy-6-oxo-5H,6H-pyrido[2,3-b]pyrazin-5-yl}ethyl)amino]-3-{3-oxo-2H,3H,4H-pyrido[3,2-b][1,4]oxazin-6-yl}-octahydro-1,3-benzoxazol-2-one] | < 1 | < 1 | < 1 | < 1 | < 1 | < 1 | < 1 | < 1 | < 1 | < 1 | < 1 | < 1 | 2 | 2 | 10 to 100 (≈ 19.7 to 197 µM) | MIC [11]: 1 to 10 µg/mL (≈ 1.97 to 19.7 µM)
5 | N#Cc1cnc2ccc(=O)n(CCN[C@H]3CC[C@H]4[C@H](C3)OC(=O)N4c3ccc4c(n3)NC(=O)CS4)c2c1 [Compound 77, 5-(2-{[(3aS,6S,7aS)-2-oxo-3-{3-oxo-2H,3H,4H-pyrido[3,2-b][1,4]thiazin-6-yl}-octahydro-1,3-benzoxazol-6-yl]amino}ethyl)-6-oxo-5,6-dihydro-1,5-naphthyridine-3-carbonitrile] | < 1 | < 1 | < 1 | < 1 | < 1 | < 1 | < 1 | < 1 | 1 to 10 (≈ 1.93 to 19.3 µM) | < 1 |  | < 1 | 1 | 1 | > 100 | MIC [11]: < 1 µg/mL
6 | 1-[(2S)-3-{[(3aR,6R,7aR)-2-oxo-3-{3-oxo-2H,3H,4H-pyrido[3,2-b][1,4]oxazin-6-yl}-octahydro-1,3-benzoxazol-6-yl]amino}-2-hydroxypropyl]-7-fluoro-1,2-dihydroquinoxalin-2-one & 1-[(2R)-3-{[(3aR,6R,7aR)-2-oxo-3-{3-oxo-2H,3H,4H-pyrido[3,2-b][1,4]oxazin-6-yl}-octahydro-1,3-benzoxazol-6-yl]amino}-2-hydroxypropyl]-7-fluoro-1,2-dihydroquinoxalin-2-one [Compound 94] |  |  |  |  |  |  |  |  |  |  |  |  |  |  |  | MIC, Ab NCTC 13420 [1]: B (a MIC of from 1 to 10 is assigned the letter B); MIC, Ab ATCC 19606 [2]: B (a MIC of from 1 to 10 is assigned the letter B); MIC, Ecl NCTC 13406 [3]: B (a MIC of from 1 to 10 is assigned the letter B); MIC, Ec ATCC 25922 [4]: A (an MIC (in μg/mL) of less or equal to 1 is assigned the letter A); MIC, Ec ATCC BAA 2452 (E. coli ATCC BAA-2452): A (an MIC (in μg/mL) of less or equal to 1 is assigned the letter A); MIC, Ec NCTC 13476 (E. coli NCTC 13476): A (an MIC (in μg/mL) of less or equal to 1 is assigned the letter A); MIC, Ec MG1655 WT (E. coli MG1655; Escherichia coli MG1655 WT, 16-20 h, mode of three independent experiments): A (an MIC (in μg/mL) of less or equal to 1 is assigned the letter A); MIC, Hi ATCC 49247 [5]: A (an MIC (in μg/mL) of less or equal to 1 is assigned the letter A); MIC, Pa ATCC 27853 [6]: B (a MIC of from 1 to 10 is assigned the letter B); MIC, Sa ATCC 29213 [7]: A (an MIC (in μg/mL) of less or equal to 1 is assigned the letter A); MIC, Sp ATCC 49619 [9]: A (an MIC (in μg/mL) of less or equal to 1 is assigned the letter A); Fold increase in MIC, E. coli MG1655 S83L (E. coli MG1655 S83L): 1 fold; Fold increase in MIC, E. coli MG1655 D87G (E. coli MG1655 D87G): 2 fold; IC50 (μg/mL) HepG2 ([10]; HepG2 cell viability, 24 h, CellTiter-Glo): A (an IC50 of over 100 is assigned the letter A)
7 | COc1ccc2ncc(=O)n(CCN[C@H]3CC[C@H]4[C@@H](C3)OC(=O)N4c3ccc4c(n3)NC(=O)CO4)c2c1 [Compound 24, 1-(2-{[(3aS,6S,7aR)-2-oxo-3-{3-oxo-2H,3H,4H-pyrido[3,2-b][1,4]oxazin-6-yl}-octahydro-1,3-benzoxazol-6-yl]amino}ethyl)-7-methoxy-1,2-dihydroquinoxalin-2-one] | < 1 | < 1 | < 1 | < 1 | < 1 | < 1 | < 1 | < 1 | < 1 | < 1 |  | < 1 | 2 | 2 | > 100 | 
